The test system of data set [1] is rat. To be noted: Subchronic oral toxicity in rodents, sprague dawley, Gavage/Intubation, dose end: 90 day, group: systemic.
Data set [2] relates to rat. To be noted: Sub-acute repeat dose toxicity, sprague dawley, Oral, Gavage/Intubation, dose end: 10 day, group: systemic.
In data set [3] the test system is mouse. To be noted: Combined chronic toxicity/carcinogenicity, b6c3f1, Oral, Gavage/Intubation, dose end: 2 year, group: systemic.
Data set [4] relates to mouse. To be noted: Subchronic oral toxicity in rodents, b6c3f1, Gavage/Intubation, dose end: 13 week, group: systemic, systemic / pathology microscopic / kidney / vacuolization cytoplasmic + systemic / pathology microscopic / liver / vacuolization cytoplasmic….
In data set [5] the test system is rat. To be noted: Combined chronic toxicity/carcinogenicity, fischer, Oral, Gavage/Intubation, dose end: 2 year, group: systemic.
For data set [6], the system named is rat. To be noted: Subchronic oral toxicity in rodents, fischer, Gavage/Intubation, dose end: 13 week, group: systemic.
Data set [7] has as its system rat. Particulars: Prenatal developmental toxicity study, Crl: CD BR, Oral, Gavage/Intubation, dose end: 15 GD.
Data set [8] relates to rat. Particulars: Multigenerational reproductive toxicity study, other, Oral, Feed, dose end: 2 generation.
Data set [9] concerns rat. Particulars: Subchronic oral toxicity in rodents, wistar, Feed, dose end: 3 month, group: systemic, systemic / organ weight / liver / nos.
For data set [10], the system named is rabbit. To be noted: Prenatal developmental toxicity study, new zealand white, Oral, Gavage/Intubation, dose end: 18 GD.
The test system of data set [11] is rabbit. To be noted: Prenatal developmental toxicity study, other, Oral, Gavage/Intubation, dose end: 18 GD.
Data set [12] deals with mouse. To be noted: Carcinogenicity, cd1, Oral, Feed, dose end: 24 month, group: systemic.
The subject of data set [13] is rat. To be noted: Chronic toxicity, wistar, Oral, Feed, dose end: 105 week, group: systemic.
The test system of the next data set is dog. Particulars: Chronic toxicity, beagle, Oral, Feed, dose end: 104 week, group: systemic.
Data set [14] relates to rat. To be noted: Prenatal developmental toxicity study, sprague dawley, Oral, Gavage/Intubation, dose end: 19 GD.
Data set [15] has as its system rat. To be noted: Subchronic inhalation toxicity, sprague dawley, Nose-Only, dose end: 90 day, group: systemic, systemic / pathology microscopic / nose / degeneration + systemic / pathology microscopic / nose / hyperkeratosis + systemic / pathology ….
Data set [16] deals with rat. To be noted: Subchronic oral toxicity in rodents, sprague dawley, Feed, dose end: 13 week, group: systemic.
The subject of data set [17] is rat. Particulars: Sub-acute dermal toxicity, Sprague-Dawley, Topical, dose end: 29 day, group: systemic, systemic / in life observation / clinical signs / anogenital staining.
Data set [18] deals with rat. To be noted: Subchronic dermal toxicity, other, Topical, dose end: 90 day, group: systemic, systemic / pathology gross / skin / lesion(s) (nos).
Setting [19] is: systemic / clinical chemistry / alkaline phosphatase (alp/alk) / alkaline phosphatase (alp/alk) + systemic / clinical chemistry / calcium / ….
Setting [20] is: systemic / pathology microscopic / liver / inflammation + systemic / clinical chemistry / aspartate aminotransferase (ast/sgot) / aspartate ….
[21] abbreviates: systemic / clinical chemistry / cholesterol / cholesterol + systemic / in life observation / body weight / body weight + systemic / organ ….
Where [22] appears, read: systemic / in life observation / body weight / body weight + systemic / pathology microscopic / kidney / vacuolization cytoplasmic + ….
Setting [23] is: systemic / pathology microscopic / kidney / vacuolization cytoplasmic + systemic / pathology microscopic / liver / vacuolization cytoplasmic….
Setting [24] is: systemic / in life observation / body weight / body weight + systemic / in life observation / body weight / body weight gain.
Where [25] appears, read: systemic / in life observation / body weight / body weight + systemic / in life observation / mortality / mortality.
The mark [26] stands for this setting: group: developmental, developmental / developmental malformation / bone / incomplete ossification.
Where [27] appears, read: group: developmental, developmental / developmental malformation / bone / incomplete ossification + systemic / in life observation / body weight / fetal weight + ….
Where [28] appears, read: group: maternal, systemic / in life observation / body weight / body weight gain + systemic / in life observation / food consumption / food consumption + ….
Where [29] appears, read: group: offspring, systemic / in life observation / body weight / offspring (pup) weight.
[30] abbreviates: group: parental, systemic / in life observation / body weight / body weight gain + systemic / clinical chemistry / gamma glutamyl transferase (ggt) / gamma ….
The mark [31] stands for this setting: group: parental, systemic / in life observation / body weight / body weight gain + systemic / in life observation / food consumption / food consumption + ….
Where [32] appears, read: group: developmental, systemic / in life observation / body weight / fetal weight.
The mark [33] stands for this setting: group: maternal, reproductive / reproductive performance / reproductive performance other / runts.
Where [34] appears, read: group: developmental, developmental / developmental malformation / bone / [other].
The mark [35] stands for this setting: group: maternal, systemic / in life observation / body weight / body weight gain.
Where [36] appears, read: group: maternal, systemic / in life observation / body weight / body weight gain + systemic / in life observation / food consumption / food consumption.
[37] abbreviates: systemic / organ weight / liver / relative to body weight.
Where [38] appears, read: systemic / in life observation / body weight / body weight gain + systemic / organ weight / kidney / absolute + systemic / organ weight / ….
Where [39] appears, read: systemic / organ weight / kidney / relative to body weight + systemic / organ weight / pancreas / relative to body weight + systemic / organ….
The mark [40] stands for this setting: group: developmental, systemic / in life observation / body weight / fetal weight + developmental / developmental malformation / bone / bipartite ossification + ….
The mark [41] stands for this setting: group: maternal, systemic / in life observation / clinical signs / salivation.
The mark [42] stands for this setting: group: maternal, systemic / in life observation / clinical signs / salivation + reproductive / reproductive performance / resorptions / resorptions + ….
[43] abbreviates: systemic / pathology microscopic / spinal cord / vacuolization + systemic / pathology microscopic / brain / vacuolization.
[44] abbreviates: systemic / pathology microscopic / spinal cord / vacuolization + systemic / pathology microscopic / brain / vacuolization + systemic / organ….

By LOAEL is commonly meant the lowest dose or exposure tested at which an adverse effect was seen. The NOAEL is the highest dose or exposure tested at which no adverse effect was seen. Regarding `Clc1cccc(Cl)c1` [1,3-Dichlorobenzene], the LOAEL in the data set with rat [1] (setting [19]) was over 588 mg/kg/day; in the data set with rat [2] (setting [21]), over 735 mg/kg/day. For the same molecule, the NOAEL in the data set with rat [1] (setting [19]) was at least 588 mg/kg/day; in the data set on rat [2] (setting [21]) it was at least 735 mg/kg/day. The LEL was determined as 9 mg/kg/day in the data set with rat [1] (setting [20]) and 147 mg/kg/day in the data set on rat [2] (systemic / organ weight / liver / nos + systemic / pathology microscopic / liver / necrosis). For the same molecule, the NEL is under 9 mg/kg/day in the data set on rat [1] (setting [20]) and 37 mg/kg/day in the data set with rat [2] (systemic / clinical chemistry / cholesterol / cholesterol + systemic / in life observation / body weight / body weight + systemic / in life …).

As for `CC(=O)OC(C)c1ccccc1` (stereo not drawn) [Benzenemethanol, alpha-methyl-, acetate], the LOAEL in the data set on mouse [3] (setting [22]) is 1000 mg/kg/day; with mouse [4], 2000 mg/kg/day; in the data set on rat [5] (systemic / in life observation / body weight / body weight + systemic / pathology microscopic / kidney / nephropathy) it was 2000 mg/kg/day; in the data set on rat [6] (systemic / in life observation / body weight / body weight), 4000 mg/kg/day. Besides, the NOAEL in the data set with mouse [3] (setting [22]) amounted to 500 mg/kg/day; in the data set on mouse [4], 1000 mg/kg/day; in the data set on rat [5] (systemic / in life observation / body weight / body weight + systemic / pathology microscopic / kidney / nephropathy + systemic / in life …), 1000 mg/kg/day; in the data set with rat [6] (setting [25]), 2000 mg/kg/day. The LEL in the data set on mouse [3] (setting [23]) worked out at 500 mg/kg/day; in the data set on mouse [4], 2000 mg/kg/day; in the data set on rat [5] (setting [24]), 1000 mg/kg/day; in the data set on rat [6] (systemic / in life observation / body weight / body weight + systemic / in life observation / mortality / mortality + systemic / pathology …), 4000 mg/kg/day. The NEL was under 500 mg/kg/day in the data set with mouse [3] (setting [23]), 1000 mg/kg/day with mouse [4], under 1000 mg/kg/day with rat [5] (setting [24]) and 2000 mg/kg/day with rat [6] (setting [25]).

Consider `CSc1nnc(C(C)(C)C)c(=O)n1N` [Metribuzin], for which the LEL in the data set on rat [7] (setting [26]) turned out to be 25 mg/kg/day; in the data set with rat [7] (setting [28]) it was 25 mg/kg/day; with rat [8] (setting [29]), 7.5 mg/kg/day; in the data set on rat [8] (setting [30]) it was 7.5 mg/kg/day; with rat [9] it was 3 mg/kg/day; with rabbit [10] (setting [32]), 45 mg/kg/day. Also, the LEL was found to be 45 mg/kg/day in the data set with rabbit [10] (setting [33]); 85 mg/kg/day with rabbit [11] (setting [34]); 30 mg/kg/day in the data set with rabbit [11] (setting [35]); 35 mg/kg/day in the data set on mouse [12] (setting [37]); 1.87 mg/kg/day with rat [13] (systemic / organ weight / lung / relative to body weight); 0.625 mg/kg/day in the data set with dog (setting [39]). In addition, the NEL with rat [7] (setting [26]) was under 25 mg/kg/day; with rat [7] (setting [28]) it was under 25 mg/kg/day; in the data set on rat [8] (setting [29]), 1.5 mg/kg/day; with rat [8] (setting [31]), 1.5 mg/kg/day; with rat [9], 1.25 mg/kg/day; in the data set on rabbit [10] (setting [32]), 15 mg/kg/day. The NEL was 15 mg/kg/day in the data set on rabbit [10] (setting [33]); 30 mg/kg/day in the data set with rabbit [11] (setting [34]); 10 mg/kg/day in the data set with rabbit [11] (setting [36]); under 35 mg/kg/day with mouse [12] (setting [37]); 1.3 mg/kg/day in the data set with rat [13] (setting [38]); under 0.625 mg/kg/day in the data set with dog (setting [39]). The LOAEL with rat [7] (setting [27]) was 200 mg/kg/day; with rat [7] (setting [28]), over 200 mg/kg/day; with rat [8] (setting [29]) it was 7.5 mg/kg/day; in the data set on rat [8] (setting [30]) it was 7.5 mg/kg/day; in the data set on rat [9], 3 mg/kg/day; with rabbit [10] (setting [32]) it was 45 mg/kg/day. In addition, the lowest observed adverse effect level (LOAEL) in the data set on rabbit [10] (group: maternal, reproductive / reproductive performance / aborted / aborted + systemic / in life observation / body weight / body weight) was found to be 135 mg/kg/day; in the data set on rabbit [11] (setting [34]), 85 mg/kg/day; in the data set on rabbit [11] (setting [35]) it was 30 mg/kg/day; with mouse [12] (systemic / hematology / hematocrit (hct) / hematocrit (hct) + systemic / hematology / hemoglobin (hgb) / hemoglobin (hgb)) it was 567 mg/kg/day; in the data set with rat [13] (systemic / in life observation / body weight / body weight gain), 14.4 mg/kg/day; in the data set with dog (systemic / clinical chemistry / cholesterol / cholesterol + systemic / hematology / blood clotting / blood clotting - prothrombin time + …) it was 37.5 mg/kg/day. Besides, the NOAEL in the data set with rat [7] (setting [27]) was 70 mg/kg/day; with rat [7] (setting [28]) it was at least 200 mg/kg/day; with rat [8] (setting [29]), 1.5 mg/kg/day; in the data set with rat [8] (setting [31]), 1.5 mg/kg/day; in the data set with rat [9], 1.25 mg/kg/day; in the data set on rabbit [10] (setting [32]), 15 mg/kg/day. In addition, the NOAEL stood at 45 mg/kg/day in the data set on rabbit [10] (group: maternal, reproductive / reproductive performance / aborted / aborted + systemic / in life observation / body weight / body weight + reproductive / …); 30 mg/kg/day in the data set with rabbit [11] (setting [34]); 10 mg/kg/day with rabbit [11] (setting [36]); 139 mg/kg/day in the data set with mouse [12] (systemic / hematology / hematocrit (hct) / hematocrit (hct) + systemic / hematology / hemoglobin (hgb) / hemoglobin (hgb) + systemic / organ…); 5.27 mg/kg/day in the data set with rat [13] (setting [38]); 2.5 mg/kg/day in the data set with dog (systemic / organ weight / kidney / relative to body weight + systemic / organ weight / pancreas / relative to body weight + systemic / …).

For the molecule `N#Cc1c(-c2ccc(Cl)cc2)[nH]c(C(F)(F)F)c1Br` [Tralopyril], the LEL with rat [14] (setting [32]) was found to be 10 mg/kg/day; with rat [14] (setting [41]), 10 mg/kg/day; in the data set on rat [15] it was 1.4 ppm; with rat [16] (setting [44]), 6.3 mg/kg/day; with rat [17], 1000 mg/kg/day; with rat [18], 300 mg/kg/day. Also, the lowest observed adverse effect level (LOAEL) in the data set on rat [14] (setting [32]) was 10 mg/kg/day; in the data set with rat [14] (setting [41]) it was 10 mg/kg/day; in the data set on rat [15] it was 1.4 ppm; in the data set on rat [16] (setting [43]), 6.3 mg/kg/day; with rat [17], over 1000 mg/kg/day; with rat [18], 300 mg/kg/day. Moreover, the NEL with rat [14] (setting [40]) was 5 mg/kg/day; in the data set with rat [14] (setting [42]), 5 mg/kg/day; with rat [15] it was under 1.4 ppm; with rat [16] (setting [44]), under 6.3 mg/kg/day; in the data set with rat [17], 300 mg/kg/day; in the data set with rat [18] it was 100 mg/kg/day. In addition, the NOAEL is 5 mg/kg/day with rat [14] (setting [40]); 5 mg/kg/day with rat [14] (setting [42]); under 1.4 ppm in the data set with rat [15]; under 6.3 mg/kg/day in the data set with rat [16] (setting [43]); at least 1000 mg/kg/day with rat [17]; 100 mg/kg/day with rat [18].

(Values after EPA's ToxRefDB 2.)
